{"source": "patent US12428406B2", "about": "(PMV Pharmaceuticals, Inc., priority 2019, dated 2025)"}
{"target": "T1, p53 Y220C (Homo sapiens, UniProt P04637, Y220C)", "T1 construct": "The recombinant protein was a truncation mutant containing only amino acids 94-312 of p53; made in house; host or cells: E. coli", "T1 sequence (P04637 94-312, change not shown)": "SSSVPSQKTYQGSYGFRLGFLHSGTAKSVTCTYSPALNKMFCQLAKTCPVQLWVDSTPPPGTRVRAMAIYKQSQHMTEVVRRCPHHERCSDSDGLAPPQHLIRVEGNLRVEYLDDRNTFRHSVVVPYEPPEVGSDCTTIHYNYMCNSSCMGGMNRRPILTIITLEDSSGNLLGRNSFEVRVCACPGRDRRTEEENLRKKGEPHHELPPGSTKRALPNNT", "experiment": "In vitro DNA binding activity assay (HTRF / TR-FRET): stabilization of p53 Y220C and increase of its DNA binding activity", "type": "biochemical", "conditions": "recombinant His-tagged p53 Y220C DNA binding domain (aa 94-312), biotin-labeled consensus DNA, incubated at 27° C. or 29° C. for 60 min", "in_short": "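His-tagged p53 Y220C, E. coli-expressed, binding biotin-labeled consensus DNA measured by HTRF (anti-His-APC, streptavidin-europium). Compounds from 4.5 mM DMSO stocks, 3-fold serial dilutions; incubations at room temperature 15 min, then 20 min. SC150 = concentration raising DNA binding by 50%.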"}
{"smiles": "CS(=O)(=O)c1ccc(NCC#Cc2cc3c(N[C@H]4CC[C@H](N5CC6(COC6)C5)CC4)cccc3n2CC(F)(F)F)c(OCC#N)c1", "note": "[Compound 222A, 2-(5-methanesulfonyl-2-{[3-(4-{[(1R,4R)-4-{2-oxa-6-azaspiro[3.3]heptan-6-yl}cyclo-hexyl]amino}-1-(2,2,2-trifluoroethyl)-1H-indol-2-yl)prop-2-yn-1-yl]amino}phenoxy) acetonitrile]", "SC150 (concentration of the compound required to increase the DNA binding activity by 50%)": "+ (+ = 0 μM ≤ SC150 < 0.05 μM)"}
{"smiles": "CC(=O)N1CCC(Nc2cccc3c2cc(C#CCNc2ccc(S(C)(=O)=O)cc2OCC#N)n3CC(F)(F)F)CC1", "note": "[Compound 729A, 2-{2-[(3-{4-[(1-acetylpiperidin-4-yl)amino]-1-(2,2,2-trifluoroethyl)-1H-indol-2-yl}prop-2-yn-1-yl)amino]-5-methanesulfonylphenoxy}acetonitrile]", "SC150 (concentration of the compound required to increase the DNA binding activity by 50%)": "+ (+ = 0 μM ≤ SC150 < 0.05 μM)"}
{"smiles": "CCC(=O)OCC(CN1CCC(Nc2cccc3c2cc(C#CCNc2ccc(C(=O)NC)cc2OC)n3CC(F)(F)F)CC1)OC(=O)CC", "note": "(stereo not drawn) [Compound 656A, 1-(4-{[2-(3-{[2-methoxy-4-(methylcarbamoyl)phenyl]amino}prop-1-yn-1-yl)-1-(2,2,2-trifluoroethyl)-1H-indol-4-yl]amino}piperidin-1-yl)-3-(propanoyloxy)propan-2-yl propanoate]", "SC150 (concentration of the compound required to increase the DNA binding activity by 50%)": "+ (+ = 0 μM ≤ SC150 < 0.05 μM)"}
{"smiles": "COC[C@@H](CN1CCC(Nc2cccc3c2cc(C#CCNc2ccc(S(C)(=O)=O)cc2OC)n3CC(F)(F)F)CC1)OC(=O)C(C)C", "note": "[Compound 635A, (2R)-1-{4-[(2-{3-[(4-methanesulfonyl-2-methoxyphenyl)amino]prop-1-yn-1-yl}-1-(2,2,2-trifluoroethyl)-1H-indol-4-yl)amino]piperidin-1-yl}-3-methoxypropan-2-yl 2-methylpropanoate]", "SC150 (concentration of the compound required to increase the DNA binding activity by 50%)": "+ (+ = 0 μM ≤ SC150 < 0.05 μM)"}
{"smiles": "CNC(=O)c1cc(OC)c(NCC#Cc2cc3c(N[C@@H]4CCN(C)C[C@@H]4F)cccc3n2CC(F)(F)F)cc1F", "note": "[Compound 826A, 2-fluoro-4-{[3-(4-{[(3S,4R)-3-fluoro-1-methylpiperidin-4-yl]amino}-1-(2,2,2-trifluoroethyl)-1H-indol-2-yl)prop-2-yn-1-yl]amino}-5-methoxy-N-methylbenzamide]", "SC150 (concentration of the compound required to increase the DNA binding activity by 50%)": "+ (+ = 0 μM ≤ SC150 < 0.05 μM)"}
{"smiles": "COC(=O)c1ccc(NCC#Cc2cc3c(N[C@H]4CCN(C)C[C@H]4F)cccc3n2CC(F)(F)F)c(OC)c1", "note": "(racemic) [Compound 778A, rac-methyl 4-{[3-(4-{[(3R,4S)-3-fluoro-1-methylpiperidin-4-yl]amino}-1-(2,2,2-trifluoroethyl)-1H-indol-2-yl)prop-2-yn-1-yl]amino}-3-methoxybenzoate]", "SC150 (concentration of the compound required to increase the DNA binding activity by 50%)": "+ (+ = 0 μM ≤ SC150 < 0.05 μM)"}
{"smiles": "COc1cc(C(N)=O)ccc1NCC#Cc1cc2c(N[C@@H]3CCO[C@@H](C)C3)cccc2n1CC(F)(F)F", "note": "[Compound 1020A, 3-methoxy-4-{[3-(4-{[(2S,4R)-2-methyloxan-4-yl]amino}-1-(2,2,2-trifluoroethyl)-1H-indol-2-yl)prop-2-yn-1-yl]amino}benzamide]", "SC150 (concentration of the compound required to increase the DNA binding activity by 50%)": "+ (+ = 0 μM ≤ SC150 < 0.05 μM)"}
{"smiles": "COc1cc(S(C)(=O)=O)ccc1NCC#Cc1cc2c(N[C@H]3CCN(C)C[C@H]3OC)cccc2n1CC(F)(F)F", "note": "[Compound 531A, 2-{3-[(4-methanesulfonyl-2-methoxyphenyl)amino]prop-1-yn-1-yl}-N-[(3R,4S)-3-methoxy-1-methylpiperidin-4-yl]-1-(2,2,2-trifluoroethyl)-1H-indol-4-amine]", "SC150 (concentration of the compound required to increase the DNA binding activity by 50%)": "++ (++ = 0.05 μM ≤ SC150 < 0.1 μM)"}
{"smiles": "COc1cc(S(C)(=O)=O)ccc1NCC#Cc1c(C)c2c(NC3CCN(C)CC3)cccc2n1CC(F)(F)F", "note": "[Compound 520A, 2-{3-[(4-methanesulfonyl-2-methoxyphenyl)amino]prop-1-yn-1-yl}-3-methyl-N-(1-methylpiperidin-4-yl)-1-(2,2,2-trifluoroethyl)-1H-indol-4-amine]", "SC150 (concentration of the compound required to increase the DNA binding activity by 50%)": "+++ (+++ = 0.1 μM ≤ SC150 < 0.2 μM)"}
{"smiles": "CNC(=O)c1ccc(NCC#Cc2cc3c(N[C@H]4CC[C@@H](NC)CC4)cccc3n2CC(F)(F)F)c(OC)c1", "note": "[Compound 110A, 3-methoxy-N-methyl-4-{[3-(4-{[(1S,4S)-4-(methylamino)cyclohexyl]amino}-1-(2,2,2-trifluoro-ethyl)-1H-indol-2-yl)prop-2-yn-1-yl]amino}benzamide]", "SC150 (concentration of the compound required to increase the DNA binding activity by 50%)": "+ (+ = 0 μM ≤ SC150 < 0.05 μM)"}
{"smiles": "COc1cc(C(=O)N2CCC(N(C)C)CC2)ccc1NCC#Cc1cc2c(N[C@@H]3CCN(C)C[C@@H]3F)cccc2n1CC(F)(F)F", "note": "[Compound 933A, 2-[3-({4-[4-(dimethylamino)piperidine-1-carbonyl]-2-methoxyphenyl}amino)prop-1-yn-1-yl]-N-[(3S,4R)-3-fluoro-1-methylpiperidin-4-yl]-1-(2,2,2-trifluoroethyl)-1H-indol-4-amine]", "SC150 (concentration of the compound required to increase the DNA binding activity by 50%)": "+ (+ = 0 μM ≤ SC150 < 0.05 μM)"}
{"smiles": "CCNC(=O)c1ccc(NCC#Cc2cc3c(N[C@H]4CC[C@H](N(C)CCOC)CC4)cccc3n2CC(F)(F)F)c(OC)c1", "note": "[Compound 153A, N-ethyl-3-methoxy-4-((3-(4-((4-((2-methoxyethyl)(methyl)amino)cyclohexyl)amino)-1-(2,2,2-trifluoroethyl)-1H-indol-2-yl)prop-2-yn-1-yl)amino)benzamide]", "SC150 (concentration of the compound required to increase the DNA binding activity by 50%)": "+ (+ = 0 μM ≤ SC150 < 0.05 μM)"}
{"smiles": "CNC(=O)c1ccc(NCC#Cc2cc3c(N[C@H]4CC[C@@H](N(C)C)CC4)cccc3n2CC(F)(F)F)c(OCF)c1", "note": "[Compound 107A, 3-(fluoromethoxy)-N-methyl-4-{[3-(4-{[(1S,4S)-4-(dimethyl-amino)cyclohexyl]amino}-1-(2,2,2-trifluoro-ethyl)-1H-indol-2-yl)prop-2-yn-1-yl]amino}benzamide]", "SC150 (concentration of the compound required to increase the DNA binding activity by 50%)": "+ (+ = 0 μM ≤ SC150 < 0.05 μM)"}
{"smiles": "COc1cc(S(C)(=O)=O)ccc1NCC#Cc1cc2c(NC3CC[N+]4(CC3)COCC(O)C4)cccc2n1CC(F)(F)F", "note": "(stereo not drawn) [Compound 674A, 4-hydroxy-9-[(2-{3-[(4-methanesulfonyl-2-methoxyphenyl)amino]prop-1-yn-1-yl}-1-(2,2,2-trifluoroethyl)-1H-indol-4-yl)amino]-2-oxa-6λ^5-azaspiro[5.5]undecan-6-ylium]", "SC150 (concentration of the compound required to increase the DNA binding activity by 50%)": "+ (+ = 0 μM ≤ SC150 < 0.05 μM)"}
{"smiles": "COc1cc(S(=O)(=O)Nc2cc(C)on2)ccc1NCC#Cc1cc2c(N[C@H]3CC[C@@H](N(C)C)CC3)cccc2n1CC(F)(F)F", "note": "[Compound 54A, 3-methoxy-N-(5-methyl-1,2-oxazol-3-yl)-4-{[3-(4-{[(1S,4S)-4-(dimethylamino)cyclohexyl]amino}-l-(2,2,2-trifluoroethyl)-1H-indol-2-yl)prop-2-yn-1-yl]amino}benzene-1-sulfonamide]", "SC150 (concentration of the compound required to increase the DNA binding activity by 50%)": "+ (+ = 0 μM ≤ SC150 < 0.05 μM)"}
{"smiles": "COc1cc(C(F)(F)F)ccc1NCC#Cc1cc2c(N[C@H]3CC[C@H](N(C)C)CC3)cccc2n1CC(F)(F)F", "note": "[Compound 134A, (1R,4R)—N^4-[2-(3-{[2-methoxy-4-(trifluoromethyl)phenyl]amino}prop-1-yn-1-yl)-1-(2,2,2-trifluoroethyl)-1H-indol-4-yl]-N^1,N^1-dimethylcyclohexane-1,4-diamine]", "SC150 (concentration of the compound required to increase the DNA binding activity by 50%)": "+ (+ = 0 μM ≤ SC150 < 0.05 μM)"}
{"smiles": "COc1cc(S(N)(=O)=O)ccc1NCC#Cc1cc2c(N[C@H]3CC[C@H](N4CC5(COC5)C4)CC3)cccc2n1CC(F)(F)F", "note": "[Compound 205A, 3-methoxy-4-{[3-(4-{[(1S,4S)-4-{2-oxa-6-azaspiro[3.3]heptan-6-yl}cyclohexyl]amino}-1-(2,2,2-trifluoroethyl)-1H-indol-2-yl)prop-2-yn-1-yl]amino}benzene-1-sulfonamide]", "SC150 (concentration of the compound required to increase the DNA binding activity by 50%)": "+ (+ = 0 μM ≤ SC150 < 0.05 μM)"}
{"smiles": "COc1cc(S(N)(=O)=O)ccc1NCC#Cc1cc2c(N[C@H]3CC[C@@H](N4C[C@H](O)[C@@H](O)C4)CC3)cccc2n1CC(F)(F)F", "note": "[Compound 58A, 3-methoxy-4-{[3-(4-{[(1S,4S)-4-[(3S,4S)-3,4-dihydroxypyrrolidin-1-yl]cyclohexyl]amino}-1-(2,2,2-trifluoroethyl)-1H-indol-2-yl)prop-2-yn-1-yl]amino}benzene-1-sulfonamide]", "SC150 (concentration of the compound required to increase the DNA binding activity by 50%)": "+ (+ = 0 μM ≤ SC150 < 0.05 μM)"}
{"smiles": "COc1cc(S(N)(=O)=O)ccc1NCC#Cc1cc2c(NC3CCN(C[C@@H](O)CO)CC3)cccc2n1CC(F)(F)F", "note": "[Compound 550A, (rac)-4-({3-[4-({1-[2,3-dihydroxypropyl]piperidin-4-yl}amino)-1-(2,2,2-trifluoroethyl)-1H-indol-2-yl]prop-2-yn-1-yl}amino)-3-methoxybenzene-1-sulfonamide]", "SC150 (concentration of the compound required to increase the DNA binding activity by 50%)": "+ (+ = 0 μM ≤ SC150 < 0.05 μM)"}
{"smiles": "COc1cc(S(C)(=O)=O)ccc1NCC#Cc1cc2c(NC(=O)N3CCN(C)CC3)cccc2n1CC(F)(F)F", "note": "[Compound 8A, N-(2-{3-[(4-methanesulfonyl-2-methoxyphenyl)amino]prop-1-yn-1-yl}-1-(2,2,2-trifluoroethyl)-1H-indol-4-yl)-4-methylpiperazine-1-carboxamide]", "SC150 (concentration of the compound required to increase the DNA binding activity by 50%)": "++++ (++++ = 0.2 μM ≤ SC150 < 1 μM)"}
{"smiles": "CC(C)C(=O)Oc1cc(S(C)(=O)=O)ccc1NCC#Cc1cc2c(N[C@H]3CC[C@H](N4CC5(COC5)C4)CC3)cccc2n1CC(F)(F)F", "note": "[Compound 228A, 5-methanesulfonyl-2-{[3-(4-{[(1R,4R)-4-{2-oxa-6-azaspiro[3.3]heptan-6-yl}cyclohexyl]amino}-1-(2,2,2-trifluoroethyl)-1H-indol-2-yl)prop-2-yn-1-yl]amino}phenyl 2-methylpropanoate]", "SC150 (concentration of the compound required to increase the DNA binding activity by 50%)": "+ (+ = 0 μM ≤ SC150 < 0.05 μM)"}
